# Test results: patent publication US4533739A, “2-[(Aminophenyl and amidophenyl)amino]-1-azacycloalkanes having antidiarrheal activity” (G. D. Searle & Co., priority 1982, dated 1985)
# Structures can show the parent of a compound that is named as a salt.
# Tested on: not given
# Test: not given
# Settings: lowering of blood pressure, hyperglycemic activity, inhibitory action on central nervous system; cited from earlier work
row,SMILES,pharmacodynamic activity in words
1,"Clc1cccc(Cl)c1N=C1CCCN1 [2-(2,6-dichloroophenylimino)pyrrolidine]",pharmacodynamically active

# Tested on: castor-oil-induced diarrhea
# Test: Castor oil-induced diarrhea in rats
# Settings: Rattus norvegicus, po, 4 h, read-out: Castor Oil ID50 (mg/kg)-4 hr.
row,SMILES,ED50 [mg/kg]
1,"CC(=O)Nc1ccc(NC2=NCCC2)c(C)c1 [Example 16, 2-[(2-Methyl-4-acetamidopheny)amino]-1-pyrroline, hydrochloride]",3.63
2,"Cc1cc(N)cc(C)c1NC1=NCCC1.Cl.Cl [Example 11, 2-[(2,6-Dimethyl-4-aminophenyl)amino]-1-pyrroline, dihydrochloride]",13.6
3,"CCC(=O)Nc1ccc(NC2=NCCC2)c(C)c1.Cl [Example 18, 2-[(2-Methyl-4-(propanamido)phenyl)amino]-1-pyrroline, hydrochloride]",0.97
4,"Cc1cc(N)ccc1NC1=NCCC1.Cl.Cl [Example 9, 2-[(2-Methyl-4-aminophenyl)amino]-1-pyrroline, dihydrochloride]",0.97
5,"CCOC(=O)Nc1ccc(NC2=NCCC2)c(C)c1.Cl [Example 23, 2-[(2-Methyl-4-(ethoxycarbonylamino)phenyl)-amino]-1-pyrroline, hydrochloride]",1.81
